Test results from patent US20240252488A1 (KOREA RESEARCH INSTITUTE OF CHEMICAL TECHNOLOGY, priority 2020, published 2024).

Tests used:
[1] = test system: FADD−/− Jurkat cells; test: Necroptosis inhibition assay, TNF-α-induced necroptosis (CellTiter-Glo 2.0); type: cell-based, human; settings: TNF-α 15 ng/mL; for Necroptosis inhibition assay (Rescue %) 1 μM: compound 1 μM; for Necroptosis inhibition assay (Rescue %) 10 μM: compound 10 μM
Procedure, shortened: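 FADD−/− Jurkat cells preincubated 30 min at room temperature with compound at 0.1, 1 and 10 μM final, then stimulated with TNF-α (15 ng/mL final) for 20–24 h at 37 °C, 5% CO2. Viability read as ATP luminescence; cytotoxicity and necroptosis inhibition rate calculated from luminescence values.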

[2] = target: T1, MLKL (Homo sapiens, UniProt Q8NB16); test: MLKL degradation assay in HepG2 cell line (western blot); type: cell-based; set-up: endogenous in cells; host or cells: HepG2 or HaCaT; settings: cell line not given; for Degradation assay (Degradation %) 1 μM: compound 1 μM; for Degradation assay (Degradation %) 10 μM: compound 10 μM
T1 sequence (Q8NB16 1-471): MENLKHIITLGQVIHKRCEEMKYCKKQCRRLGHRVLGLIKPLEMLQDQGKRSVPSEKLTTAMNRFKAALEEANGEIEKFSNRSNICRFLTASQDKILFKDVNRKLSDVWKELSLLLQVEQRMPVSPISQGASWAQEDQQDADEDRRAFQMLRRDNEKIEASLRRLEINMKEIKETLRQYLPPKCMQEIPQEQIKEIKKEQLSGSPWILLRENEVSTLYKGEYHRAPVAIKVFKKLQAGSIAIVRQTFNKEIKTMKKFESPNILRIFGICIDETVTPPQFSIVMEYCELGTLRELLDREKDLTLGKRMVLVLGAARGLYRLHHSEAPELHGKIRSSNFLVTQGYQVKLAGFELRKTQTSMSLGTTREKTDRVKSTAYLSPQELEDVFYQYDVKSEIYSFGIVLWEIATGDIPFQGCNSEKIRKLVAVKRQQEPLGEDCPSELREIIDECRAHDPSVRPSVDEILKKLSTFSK
Procedure, shortened: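 HepG2 cells were treated 20-24 h at 37 °C with compound at 1 or 10 μM final. RIPA lysates were normalized by BCA, and 10-15 μg protein per lane was resolved by SDS-PAGE. MLKL was detected by western blot with chemiluminescence.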

[3] = target: T1, MLKL; test: Measurement of binding affinity with MLKL receptor (competitive binding assay, Kd); set-up: made in house; host or cells: HEK 293 cell line (T7 phage in E. coli BL21-derived host is also described)
Procedure, shortened: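 qPCR of MLKL eluted from liganded beads served as the read-out, from which Kd was derived. The protein was made in HEK 293 cells with a DNA tag, and test compounds competed with the bead-bound ligand at 0.9% final DMSO.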

| SMILES | Degradation assay (Degradation %) 1 μM [2] | Degradation assay (Degradation %) 10 μM [2] | Kd [3] | Necroptosis inhibition assay (Rescue %) 1 μM ([1]; FADD−/− Jurkat cells) | Necroptosis inhibition assay (Rescue %) 10 μM ([1]; FADD−/− Jurkat cells) | Necroptosis inhibition assay (Rescue %) 1 μM [1] | Necroptosis inhibition assay (Rescue %) 10 μM [1] |
| --- | --- | --- | --- | --- | --- | --- | --- |
| Nc1ncc(-c2cnn(C3CCN(CCCCCCCCCCNC(=O)C4CCN(c5ccc6c(c5)C(=O)N(C5CCC(=O)NC5=O)C6=O)CC4)CC3)c2)nc1C(=O)O[C@@H](C(=O)Nc1ccc(F)cc1)c1ccccc1 (stereo partly drawn) [TDH-157, (R)-2-((4-fluorophenyl)amino)-2-oxo-1-phenylethyl 3-amino-6-(1-(1-(10-(1-(2-(2,6-dioxopiperidin-3-yl)-1,3-dioxoisoindolin-5-yl)piperidine-4-carboxamido)decyl)piperidin-4-yl)-1H-pyrazol-4-yl)pyrazine-2-carboxylate] | 62.45% | 64.73% | 47 nM |  |  | 37.7% | 45.37% |
| Nc1ncc(-c2cnn(C3CCN(CCCN4CCN(C(=O)CNc5cccc6c5C(=O)N(C5CCC(=O)NC5=O)C6=O)CC4)CC3)c2)nc1C(=O)OC(C(=O)Nc1ccc(F)cc1)c1ccccc1 (stereo not drawn) [TDH-241, 2-((4-fluorophenyl)amino)-2-oxo-1-phenylethyl 3-amino-6-(1-(1-(3-(4-((2-(2,6-dioxopiperidin-3-yl)-1,3-dioxoisoindolin-4-yl)glycyl)piperazin-1-yl)propyl)piperidin-4-yl)-1H-pyrazol-4-yl)pyrazine-2-carboxylate] | 64.55% | 64.03% | 2.9 nM |  |  | 50.09% | 28.85% |
| COc1ccc(C(=O)N2CCC(C(=O)N3CCC(CN4CCC(CCN5CCC(n6cc(-c7cnc(N)c(C(=O)O[C@@H](C(=O)Nc8ccc(F)cc8)c8ccccc8)n7)cn6)CC5)CC4)CC3)CC2)cc1N1CCC(=O)NC1=O [TDH-511, (R)-2-((4-fluorophenyl)amino)-2-oxo-1-phenylethyl 3-amino-6-(1-(1-(2-(1-((1-(1-(3-(2,4-dioxotetrahydropyrimidin-1(2H)-yl)-4-methoxybenzoyl)piperidine-4-carbonyl)piperidin-4-yl)methyl)piperidin-4-yl)ethyl)piperidin-4-yl)-1H-pyrazol-4-yl)pyrazine-2-carboxylate] | 81.08% | 91.73% | 0.24 nM | 32.32% | 46.16% |  |  |
| Nc1ncc(-c2cnn(C3CCN(C[C@H]4CC[C@H](CNc5cccc6c5C(=O)N(C5CCC(=O)NC5=O)C6=O)CC4)CC3)c2)nc1C(=O)O[C@@H](C(=O)Nc1ccc(F)cc1)c1ccccc1 (stereo partly drawn) [TDH-351, (R)-2-((4-fluorophenyl)amino)-2-oxo-1-phenylethyl 3-amino-6-(1-(1-(((1r,4r)-4-(((2-(2,6-dioxopiperidin-3-yl)-1,3-dioxoisoindolin-4-yl)amino)methyl)cyclohexyl)methyl)piperidin-4-yl)-1H-pyrazol-4-yl)pyrazine-2-carboxylate] | 62.4% | 24.61% | 6.1 nM |  |  | 0.74% | 3.39% |
| Nc1ncc(-c2cnn(C3CCN(CCOCCNC(=O)C4CCN(c5ccc6c(c5)C(=O)N(C5CCC(=O)NC5=O)C6=O)CC4)CC3)c2)nc1C(=O)O[C@@H](C(=O)Nc1ccc(F)cc1)c1ccccc1 (stereo partly drawn) [TDH-129, (R)-2-((4-fluorophenyl)amino)-2-oxo-1-phenylethyl 3-amino-6-(1-(1-(2-(2-(1-(2-(2,6-dioxopiperidin-3-yl)-1,3-dioxoisoindolin-5-yl)piperidine-4-carboxamido)ethoxy)ethyl)piperidin-4-yl)-1H-pyrazol-4-yl)pyrazine-2-carboxylate] | 32.68% | 57.68% | 7.1 nM |  |  | 49.22% | 67.79% |
| Nc1ncc(-c2cnn(C3CCN(C(=O)CCC4CCN(C(=O)CNc5cccc6nnn(C7CCC(=O)NC7=O)c(=O)c56)CC4)CC3)c2)nc1C(=O)O[C@@H](C(=O)Nc1ccc(F)cc1)c1ccccc1 (stereo partly drawn) [TDH-433, (R)-2-((4-fluorophenyl)amino)-2-oxo-1-phenylethyl 3-amino-6-(1-(1-(3-(1-((3-(2,6-dioxopiperidin-3-yl)-4-oxo-3,4-dihydrobenzo[d][1,2,3]triazin-5-yl)glycyl)piperidin-4-yl)propanoyl)piperidin-4-yl)-1H-pyrazol-4-yl)pyrazine-2-carboxylate] | 74.16% | 46.20% | 2.1 nM | 16.00% | 11.01% |  |  |

Continued, in another order:

| Degradation assay (Degradation %) 1 μM [2] | Degradation assay (Degradation %) 10 μM [2] | Kd [3] | SMILES | Necroptosis inhibition assay (Rescue %) 1 μM ([1]; FADD−/− Jurkat cells) | Necroptosis inhibition assay (Rescue %) 10 μM ([1]; FADD−/− Jurkat cells) | Necroptosis inhibition assay (Rescue %) 1 μM [1] | Necroptosis inhibition assay (Rescue %) 10 μM [1] |
| --- | --- | --- | --- | --- | --- | --- | --- |
| 77.69% | 60.15% | 6.5 nM | Nc1ncc(-c2cnn(C3CCN(C(=O)CC4CCN(C(=O)C5CN(c6ccc7nnn(C8CCC(=O)NC8=O)c(=O)c7c6)C5)CC4)CC3)c2)nc1C(=O)O[C@@H](C(=O)Nc1ccc(F)cc1)c1ccccc1 (stereo partly drawn) [TDH-406, (R)-2-((4-fluorophenyl)amino)-2-oxo-1-phenylethyl 3-amino-6-(1-(1-(2-(1-(1-(3-(2,6-dioxopiperidin-3-yl)-4-oxo-3,4-dihydrobenzo[d][1,2,3]triazin-6-yl)azetidine-3-carbonyl)piperidin-4-yl)acetyl)piperidin-4-yl)-1H-pyrazol-4-yl)pyrazine-2-carboxylate] | 44.99% | 39.97% |  |  |
| 89.91% | 90.14% | 1.7 nM | Nc1ncc(-c2cnn(C3CCN(C(=O)CCC4CCN(C(=O)COc5cccc6c5C(=O)N(C5CCC(=O)NC5=O)C6=O)CC4)CC3)c2)nc1C(=O)O[C@@H](C(=O)Nc1ccc(F)cc1)c1ccccc1 (stereo partly drawn) [TDH-415, (R)-2-((4-fluorophenyl)amino)-2-oxo-1-phenylethyl 3-amino-6-(1-(1-(3-(1-(2-((2-(2,6-dioxopiperidin-3-yl)-1,3-dioxoisoindolin-4-yl)oxy)acetyl)piperidin-4-yl)propanoyl)piperidin-4-yl)-1H-pyrazol-4-yl)pyrazine-2-carboxylate] | 41.74% | 40.81% |  |  |
| 81.51% | 84.75% | 0.51 nM | Nc1ncc(-c2cnn(C3CCN(CCCN4CCN(CC5CCN(C(=O)COc6ccc7c(c6)C(=O)N(C6CCC(=O)NC6=O)C7=O)CC5)CC4)CC3)c2)nc1C(=O)O[C@@H](C(=O)Nc1ccc(F)cc1)c1ccccc1 (stereo partly drawn) [TDH-440, (R)-2-((4-fluorophenyl)amino)-2-oxo-1-phenylethyl 3-amino-6-(1-(1-(3-(4-((1-(2-((2-(2,6-dioxopiperidin-3-yl)-1,3-dioxoisoindolin-5-yl)oxy)acetyl)piperidin-4-yl)methyl)piperazin-1-yl)propyl)piperidin-4-yl)-1H-pyrazol-4-yl)pyrazine-2-carboxylate] | 65.67% | 24.42% |  |  |
